According to patent publication US10125098B2, “Therapeutic compounds and methods of use thereof” (GENENTECH, INC., priority 2014, dated 2018):
pIC50: −log10 of the molar value. Where a name gives a salt, the structure may show the parent alone. Read-outs that look alike come from different tables or passages of the source.

Legend:
human NaV1.7 = target: T1, human NaV1.7 (Homo sapiens, UniProt Q15858); assay: Patch voltage clamp electrophysiology assay (EP), NaV1.7; format: cell-based; settings: HEK-293 cells stably expressing NaV1.7 with β1 subunit; whole-cell patch clamp, membrane potential −60 mV (inactivated state)
T1 construct: permanently transfected with an expression vector containing the full-length cDNA coding for the desired human sodium channel α-subunit; expressed in transfected cells; host or cells: HEK-293
Method: (§1) The following patch voltage clamp electrophysiology studies were performed on representative compounds of the invention using human embryonic kidney cells (HEK), permanently transfected with an expression vector containing the full-length cDNA coding for the desired human sodium channel α-subunit, grown in culture media containing 10% FBS, 1% PSG, and 0.5 mg/mL G418 at 37° C. with 5% CO2. […] NaV1.7 and NaV1.5 cDNAs (NM_002977 and AC137587; SCN5A, respectively) were stably expressed in HEK-293 cells. The β1 subunit was coexpressed in both the NaV1.7 and NaV1.5 cell lines.
(§2) Sodium currents were measured using the patch clamp technique in the whole-cell configuration using either a PatchXpress automated voltage clamp or manually using an Axopatch 200B (Axon Instruments) or Model 2400 (A-M systems) amplifier. The manual voltage clamp protocol was as follows: Borosilicate glass micropipettes were fire-polished to a tip diameter yielding a resistance of 2-4 Mohms in the working solutions. The pipette was filled with a solution comprised of: 5 mM NaCl, 10 mM CsCl, 120 mM CsF, 0.1 mM CaCl2, 2 mM MgCl2, 10 mM HEPES, 10 mM EGTA; and adjusted to pH 7.2 with CsOH. The external solution had the following composition: 140 mM NaCl, 5 mM KCl, 2 mM CaCl2, 1 mM MgCl2, 10 mM HEPES; and adjusted to pH 7.4 with NaOH. In some studies, the external sodium was reduced by equimolar replacement with choline. Osmolarity in the CsF internal and NaCl external solutions was adjusted to 300 mOsm/kg and 310 mOsm/kg with glucose, respectively. All recordings were performed at ambient temperature in a bath chamber with a volume of 150 μL. Control sodium currents were measured in 0.5% DMSO. Controls and representative compounds of the invention were applied to the recording chamber through a 4-pinch or 8-pinch valve bath perfusion system manufactured by ALA Scientific Instruments.
(§3) Series resistance compensation was applied (60-80%). […] All statistics in this study are given as mean±SD.
(§4) The membrane potential was maintained at a voltage where inactivation of the channel is complete (which was −60 mV for both NaV1.7 and NaV1.5). The voltage is then stepped back to a very negative (Vhold=[…]) voltage for 20 ms and then a test pulse is applied to quantify the compound block. […] The percent decrease in sodium current following wash-on of compound was taken as the percent block of sodium channels.

hNav1.7 = target: T2, hNav1.7 (Homo sapiens, UniProt Q15858); assay: Tritiated compound binding (LBA) to membranes from cells expressing hNav1.7 and the β1 subunit, competitive binding; settings: competitive binding vs 100 pM [3H]compound, 18 h, room temperature, membranes with hNav1.7 and β1 subunit
T2 construct: expressed in transfected cells
Method: Tritiated Compound Binding to Membranes
Isolated from Cells that Heterologously Express hNav1.7 and the β1 Subunit
Preparation of membranes containing recombinantly expressed sodium channels: Frozen recombinant cell pellets were thawed on ice and diluted to 4 times the cell pellet weight with ice cold 50 mM Tris HCl, pH 7.4 buffer. The cell suspensions were homogenized on ice using a motorized glass dounce homogeniser. […] The supernatants were collected and centrifuged at 10000×g at 4° C. for 50 min. The pellets were then re-suspended in 100 mM NaCl, 20 mM Tris HCl, pH 7.4 buffer containing 1% v/v protease inhibitors (Calbiochem) and re-homogenized on ice. The homogenized membranes were then processed through a syringe equipped with a 26 gauge needle. Protein concentrations were determined by Bradford Assay and the membranes were stored at −80° C.
Saturation experiments. A representative compound of formula (I) having a methyl group was tritiated. Three tritiums were incorporated in place of methyl hydrogens to generate [^3H]compound. Binding of this radioligand was performed in 5 mL borosilicate glass test tubes at room temperature. Binding was initiated by adding membranes to increasing concentrations of [^3H]compound in 100 mM NaCl, 20 mM Tris HCl, pH 7.4 buffer containing 0.01% w/v bovine serum albumin (BSA) for 18 h. Non-specific binding was determined in the presence of 1 μM unlabeled compound. After 18 h, the reactants were filtered through GF/C glass fiber filters presoaked in 0.5% w/v polyethylene imine. […] [^3H]compound bound to filters was quantified by liquid scintillation counting.
Binding reactions were performed in 96-well polypropylene plates at room temperature for 18 h. In 360 μL, membranes were incubated with 100 pM [^3H]compound and increasing concentrations of Test Compound. Non-specific binding was defined in the presence of 1 μM unlabeled compound. Reactions were transferred and filtered through 96-well glass fiber/C filter plates presoaked with 0.5% polyethylene imine. […] Bound radioactivity was determined by liquid scintillation counting.
Data Analysis: For saturation experiments, non-specific binding was subtracted from total binding to provide specific binding and these values were recalculated in terms of pmol ligand bound per mg protein. Saturation curves were constructed and dissociation constants were calculated using the single site ligand binding model: Beq=(Bmax*X)/(X+Kd), where Beq is the amount of ligand bound at equilibrium, Bmax is the maximum receptor density, Kd is the dissociation constant for the ligand, and X is the free ligand concentration. For competition studies percent inhibition was determined and IC50 values were calculated using a 4 parameter logistic model (% inhibition=(A+((B−A)/(1+((x/C)^D)))) using XLfit, where A and B are the maximal and minimum inhibition respectively, C is the IC50 concentration and D is the (Hill) slope.

NaV1.5 = target: T3, NaV1.5 (Homo sapiens, UniProt Q14524); assay: Patch voltage clamp electrophysiology assay (EP), NaV1.5; format: cell-based; settings: HEK-293 cells stably expressing NaV1.5 with β1 subunit, whole-cell patch clamp, membrane potential −60 mV (inactivated state)
T3 construct: permanently transfected with an expression vector containing the full-length cDNA coding for the desired human sodium channel α-subunit; expressed in transfected cells; host or cells: HEK-293
Method: as §1, §2, §3, §4

[1] = human, HEK-293 cells stably expressing human NaV1.5 with β1 subunit, pH 7.4

T3 sequence (Q14524 whole entry): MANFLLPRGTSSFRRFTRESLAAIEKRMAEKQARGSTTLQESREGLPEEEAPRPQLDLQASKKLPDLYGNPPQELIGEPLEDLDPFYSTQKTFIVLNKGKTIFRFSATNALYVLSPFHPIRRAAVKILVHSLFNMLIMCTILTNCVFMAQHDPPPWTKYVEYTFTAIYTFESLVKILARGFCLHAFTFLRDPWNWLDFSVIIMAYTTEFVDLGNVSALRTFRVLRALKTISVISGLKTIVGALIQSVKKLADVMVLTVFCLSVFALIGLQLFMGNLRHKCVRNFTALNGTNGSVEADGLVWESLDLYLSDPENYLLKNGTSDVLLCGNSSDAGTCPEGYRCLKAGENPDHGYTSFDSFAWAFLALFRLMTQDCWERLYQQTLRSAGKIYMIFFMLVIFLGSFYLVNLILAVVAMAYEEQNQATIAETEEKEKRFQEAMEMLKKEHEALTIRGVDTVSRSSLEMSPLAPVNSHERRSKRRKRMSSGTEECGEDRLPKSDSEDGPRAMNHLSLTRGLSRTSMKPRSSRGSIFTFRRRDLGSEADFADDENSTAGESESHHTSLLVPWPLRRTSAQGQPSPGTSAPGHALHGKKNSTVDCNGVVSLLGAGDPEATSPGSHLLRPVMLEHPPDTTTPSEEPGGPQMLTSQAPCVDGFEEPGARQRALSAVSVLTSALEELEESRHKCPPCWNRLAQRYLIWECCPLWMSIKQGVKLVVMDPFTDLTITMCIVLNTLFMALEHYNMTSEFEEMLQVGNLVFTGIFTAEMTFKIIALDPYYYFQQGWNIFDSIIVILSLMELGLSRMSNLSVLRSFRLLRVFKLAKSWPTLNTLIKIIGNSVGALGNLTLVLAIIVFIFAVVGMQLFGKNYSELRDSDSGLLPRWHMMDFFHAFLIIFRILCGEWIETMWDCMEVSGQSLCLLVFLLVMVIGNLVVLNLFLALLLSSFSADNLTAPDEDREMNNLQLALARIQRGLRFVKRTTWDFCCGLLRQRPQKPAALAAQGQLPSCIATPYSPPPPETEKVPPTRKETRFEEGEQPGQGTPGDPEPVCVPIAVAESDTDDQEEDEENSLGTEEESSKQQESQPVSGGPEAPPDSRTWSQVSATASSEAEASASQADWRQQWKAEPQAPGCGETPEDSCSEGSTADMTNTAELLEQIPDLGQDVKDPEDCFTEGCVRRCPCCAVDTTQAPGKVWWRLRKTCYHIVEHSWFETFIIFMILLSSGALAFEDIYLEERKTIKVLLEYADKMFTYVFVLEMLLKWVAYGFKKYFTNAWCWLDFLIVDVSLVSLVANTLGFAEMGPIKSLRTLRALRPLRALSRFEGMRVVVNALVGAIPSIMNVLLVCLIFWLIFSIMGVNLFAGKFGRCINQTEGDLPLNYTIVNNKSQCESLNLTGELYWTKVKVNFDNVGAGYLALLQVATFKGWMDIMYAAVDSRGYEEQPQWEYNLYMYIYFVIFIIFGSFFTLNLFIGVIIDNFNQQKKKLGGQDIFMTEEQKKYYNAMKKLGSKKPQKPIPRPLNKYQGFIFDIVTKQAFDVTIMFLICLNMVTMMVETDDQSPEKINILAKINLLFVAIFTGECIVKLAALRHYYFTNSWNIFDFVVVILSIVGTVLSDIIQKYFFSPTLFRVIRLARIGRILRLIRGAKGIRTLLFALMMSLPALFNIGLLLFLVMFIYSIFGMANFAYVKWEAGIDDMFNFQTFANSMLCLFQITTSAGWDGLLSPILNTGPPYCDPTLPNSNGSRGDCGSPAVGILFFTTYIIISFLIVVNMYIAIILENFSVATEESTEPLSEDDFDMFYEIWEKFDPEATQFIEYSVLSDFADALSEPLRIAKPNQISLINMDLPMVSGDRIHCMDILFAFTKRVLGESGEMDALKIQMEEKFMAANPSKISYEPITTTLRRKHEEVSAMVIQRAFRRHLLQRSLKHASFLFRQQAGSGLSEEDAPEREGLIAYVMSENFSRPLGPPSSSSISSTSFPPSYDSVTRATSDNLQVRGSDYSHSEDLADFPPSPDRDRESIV
T2 sequence (Q15858 1-1977 isoform Q15858-3): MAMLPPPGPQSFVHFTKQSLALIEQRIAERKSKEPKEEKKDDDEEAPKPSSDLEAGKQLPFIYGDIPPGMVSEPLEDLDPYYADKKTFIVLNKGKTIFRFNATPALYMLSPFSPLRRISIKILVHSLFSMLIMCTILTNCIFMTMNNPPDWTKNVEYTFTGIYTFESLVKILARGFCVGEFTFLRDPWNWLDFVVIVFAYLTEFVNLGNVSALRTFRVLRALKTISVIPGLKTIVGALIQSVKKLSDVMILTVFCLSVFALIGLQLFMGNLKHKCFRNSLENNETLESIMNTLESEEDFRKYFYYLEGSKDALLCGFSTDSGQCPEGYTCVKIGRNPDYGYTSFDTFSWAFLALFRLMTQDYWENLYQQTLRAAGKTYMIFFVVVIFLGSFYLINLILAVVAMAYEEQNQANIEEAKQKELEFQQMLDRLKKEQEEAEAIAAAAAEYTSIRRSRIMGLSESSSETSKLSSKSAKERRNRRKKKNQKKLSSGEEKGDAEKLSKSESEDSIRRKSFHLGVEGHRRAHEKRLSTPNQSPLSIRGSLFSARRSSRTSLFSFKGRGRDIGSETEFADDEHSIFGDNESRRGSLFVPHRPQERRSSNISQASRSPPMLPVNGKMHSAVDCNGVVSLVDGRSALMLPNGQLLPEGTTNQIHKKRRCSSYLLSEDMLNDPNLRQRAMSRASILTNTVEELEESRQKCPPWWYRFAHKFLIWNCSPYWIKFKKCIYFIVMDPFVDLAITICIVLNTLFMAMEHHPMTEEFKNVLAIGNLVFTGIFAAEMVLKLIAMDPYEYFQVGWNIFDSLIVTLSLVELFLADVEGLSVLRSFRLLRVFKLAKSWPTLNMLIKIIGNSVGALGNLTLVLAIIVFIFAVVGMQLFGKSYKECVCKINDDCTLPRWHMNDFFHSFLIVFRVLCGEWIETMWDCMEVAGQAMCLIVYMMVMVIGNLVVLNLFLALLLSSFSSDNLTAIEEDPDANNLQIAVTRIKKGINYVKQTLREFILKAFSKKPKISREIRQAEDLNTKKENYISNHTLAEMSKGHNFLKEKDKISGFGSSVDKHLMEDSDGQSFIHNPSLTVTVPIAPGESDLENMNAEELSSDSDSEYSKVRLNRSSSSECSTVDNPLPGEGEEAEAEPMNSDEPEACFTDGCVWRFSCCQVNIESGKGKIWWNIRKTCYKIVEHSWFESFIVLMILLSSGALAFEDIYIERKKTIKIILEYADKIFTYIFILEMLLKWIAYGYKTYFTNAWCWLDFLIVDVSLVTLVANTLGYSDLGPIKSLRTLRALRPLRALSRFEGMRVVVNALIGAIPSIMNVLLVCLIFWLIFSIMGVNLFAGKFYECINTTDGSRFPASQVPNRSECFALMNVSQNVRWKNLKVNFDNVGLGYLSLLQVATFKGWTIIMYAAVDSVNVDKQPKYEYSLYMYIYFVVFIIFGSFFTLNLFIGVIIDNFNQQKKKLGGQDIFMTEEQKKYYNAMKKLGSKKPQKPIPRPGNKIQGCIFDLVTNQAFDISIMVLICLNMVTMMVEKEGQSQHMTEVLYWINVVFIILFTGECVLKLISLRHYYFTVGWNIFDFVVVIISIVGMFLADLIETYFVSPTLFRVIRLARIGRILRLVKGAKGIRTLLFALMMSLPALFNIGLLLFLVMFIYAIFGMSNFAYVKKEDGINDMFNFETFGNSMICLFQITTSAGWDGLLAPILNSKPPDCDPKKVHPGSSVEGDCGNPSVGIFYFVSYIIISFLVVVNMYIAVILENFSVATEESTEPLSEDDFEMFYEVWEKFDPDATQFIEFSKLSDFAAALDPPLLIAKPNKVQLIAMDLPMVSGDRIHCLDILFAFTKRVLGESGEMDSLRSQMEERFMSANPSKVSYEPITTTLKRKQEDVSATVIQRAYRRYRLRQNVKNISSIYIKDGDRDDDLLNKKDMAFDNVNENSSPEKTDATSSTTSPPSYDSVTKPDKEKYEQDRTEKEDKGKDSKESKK
T2 sequence (Q07699 19-218 partner): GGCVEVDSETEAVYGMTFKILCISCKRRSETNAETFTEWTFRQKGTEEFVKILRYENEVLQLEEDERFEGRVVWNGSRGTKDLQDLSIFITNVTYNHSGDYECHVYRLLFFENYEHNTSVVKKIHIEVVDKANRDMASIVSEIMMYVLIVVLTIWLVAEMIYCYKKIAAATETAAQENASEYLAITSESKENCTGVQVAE
T1 sequence (Q15858 1-1977 isoform Q15858-3): as the sequence (Q15858 1-1977 isoform Q15858-3) above
T1 sequence (Q07699 19-218 partner): as the sequence (Q07699 19-218 partner) above

Row | SMILES | pIC50 (human NaV1.7) | pIC50 (hNav1.7) | pIC50 (NaV1.5; read-out: Nav1.5) | pIC50 (NaV1.5; [1])
1 | O=C(O)[C@@H]1CCCN1C(=O)c1cc(Cl)c(Oc2cnc(OCC(F)(F)F)c(Cl)c2)cc1F [Example 191, (S)-1-(5-Chloro-4-((5-chloro-6-(2,2,2-trifluoroethoxy)pyridin-3-yl)oxy)-2-fluorobenzoyl)pyrrolidine-2-carboxylic acid trifluoroacetate] | 4.72 | 5.57 | – | ≤ 4.52
2 | C[C@H]1CC[C@@H](C(=O)O)N1C(=O)c1cc(C2CC2)c(OCC23CC4CC(CC(C4)C2)C3)cc1F [Example 153, (2S,5S)-1-[4-(1-adamantylmethoxy)-5-cyclopropyl-2-fluoro-benzoyl]-5-methyl-pyrrolidine-2-carboxylic acid] | – | – | 4.72 | –
3 | C[C@@H](c1cc(Cl)cc(Cl)c1)N1CCC(COc2cc(F)c(C(=O)N3C[C@H](F)C[C@H]3C(=O)O)cc2C2CC2)CC1 [Example 100] | – | – | 4.74 | –
4 | C[C@@H](c1cc(Cl)cc(Cl)c1)N1CCC(COc2cc(F)c(C(=O)N3C[C@H](F)C[C@H]3C(=O)O)cc2C2CC2)CC1 [Example 158, (2S,4R)-1-[5-cyclopropyl-4-[[1-[(1S)-1-(3,5-dichlorophenyl)ethyl]-4-piperidyl]methoxy]-2-fluoro-benzoyl]-4-fluoro-pyrrolidine-2-carboxylic acid] | – | – | – | ≤ 4.52
5 | C[C@@H]1CC[C@@H](C(=O)O)N1C(=O)c1cc(C2CC2)c(OCC23CC4CC(CC(C4)C2)C3)cc1F [Example 152, (2S,5R)-1-[4-(1-adamantylmethoxy)-5-cyclopropyl-2-fluoro-benzoyl]-5-methyl-pyrrolidine-2-carboxylic acid] | – | – | 4.89 | –
6 | O=C(O)[C@H]1C[C@@H](O)CN1C(=O)c1cc(C2CC2)c(OCC23CC4CC(CC(C4)C2)C3)cc1F [Example 47, (2R,4R)-1-[4-(1-adamantylmethoxy)-5-cyclopropyl-2-fluoro-benzoyl]-4-hydroxy-pyrrolidine-2-carboxylic acid] | 4.80 | ≤ 5.00 | – | –
7 | O=C(O)[C@@H]1CCCN1C(=O)c1cc(C2CC2)c(O[C@H]2CCCN(Cc3ccc(F)cc3Cl)C2)cc1F [Example 95, (S)-1-(4-(((S)-1-(2-chloro-4-fluorobenzyl)piperidin-3-yl)oxy)-5-cyclopropyl-2-fluorobenzoyl)pyrrolidine-2-carboxylic acid] | – | ≤ 5.00 | – | ≤ 4.52
8 | Nc1noc2ccc(-c3cc(Cl)ccc3Oc3cc(F)c(C(=O)N4CCC[C@H]4C(=O)O)cc3F)cc12 [Example 192, (S)-1-(4-(2-(3-aminobenzo[d]isoxazol-5-yl)-4-chlorophenoxy)-2,5-difluorobenzoyl)pyrrolidine-2-carboxylic acid trifluoroacetate] | – | ≤ 5.00 | – | ≤ 4.52
9 | CN(CC(=O)O)C(=O)c1cc(C2CC2)c(OCC23CC4CC(CC(C4)C2)C3)cc1F [Example 45, 2-(4-(adamantan-1-ylmethoxy)-5-cyclopropyl-2-fluoro-N-methylbenzamido)acetic acid] | 4.93 | 5.08 | – | –

Continued, in another order:

Row | pIC50 (human NaV1.7) | pIC50 (hNav1.7) | SMILES | pIC50 (NaV1.5; read-out: Nav1.5) | pIC50 (NaV1.5; [1])
10 | 5.46 | 6.54 | O=C(c1cc(C2CC2)c(OCC23CC4CC(CC(C4)C2)C3)cc1F)N1CCC2CC21C(=O)O (stereo not drawn) [Example 212, 2-(4-((Adamantan-1-yl)methoxy)-5-cyclopropyl-2-fluorobenzoyl)-2-azabicyclo[3.1.0]hexane-1 carboxylicacid] | 4.77 | –
11 | 7.49 | 7.68 | C[C@H]1[C@H](O)CN(C(=O)c2cc(C3CC3)c(OCC34CC5CC(CC(C5)C3)C4)cc2F)[C@@H]1C(=O)O [Example 230, (2S, 3R, 4S)-1-(4-(adamantan-1-ylmethoxy)-5-cyclopropyl-2-fluorobenzoyl)-4-hydroxy-3-methylpyrrolidine-2-carboxylic acid] | 4.96 | –
12 | 6.08 | 7.23 | O=C(O)C1COCN1C(=O)c1cc(C2CC2)c(OCC23CC4CC(CC(C4)C2)C3)cc1F (stereo in doubt) [Example 154, (4R)-3-[4-(1-adamantylmethoxy)-5-cyclopropyl-2-fluoro-benzoyl]oxazolidine-4-carboxylic acid] | 4.80 | –
13 | 5.57 | 6.01 | O=C(O)[C@@H]1[C@@H]2C[C@@H]2CN1C(=O)c1cc(C2CC2)c(OCC23CC4CC(CC(C4)C2)C3)cc1F (racemic) [Example 61, racemate-(1R, 3S, 5R)-2-(4-((adamantan-1-yl)methoxy)-5-cyclopropyl-2-fluorobenzoyl)-2-azabicyclo[3.1.0]hexane-3-carboxylic acid] | 4.92 | –
14 | 5.66 | 6.77 | CO[C@H]1CN(C(=O)c2cc(C3CC3)c(OCC34CC5CC(CC(C5)C3)C4)cc2F)[C@H](C(=O)O)C1C (stereo partly drawn) [Example 205, (2S,4R)-1-(4-(adamantan-1-ylmethoxy)-5-cyclopropyl-2-fluorobenzoyl)-4-methoxy-3-methylpyrrolidine-2-carboxylic acid] | 4.60 | –
15 | 5.52 | 6.12 | C[C@@H]1SCN(C(=O)c2cc(C3CC3)c(OCC34CC5CC(CC(C5)C3)C4)cc2F)[C@H]1C(=O)O [Example 142b, (4S,5S)-3-[4-(1-adamantylmethoxy)-5-cyclopropyl-2-fluoro-benzoyl]-5-methyl-thiazolidine-4-carboxylic acid] | 4.82 | –
16 | 6.64 | 8.00 | O=C(O)[C@@H]1C[C@@H](F)CN1C(=O)c1cc(C2CC2)c(OCC23CC4CC(CC(C4)C2)C3)cc1F [Example 49, (2S,4R)-1-[4-(1-adamantylmethoxy)-5-cyclopropyl-2-fluoro-benzoyl]-4-fluoro-pyrrolidine-2-carboxylic acid] | – | –
17 | 5.74 | 5.96 | O=C(O)[C@@H]1CCCN1C(=O)c1cc(C2CC2)c(OC2C3CC4CC2CC(Cl)(C4)C3)cc1F (single isomer, unassigned) [Example 82] | – | –
18 | 6.19 | 7.40 | O=C(O)[C@@H]1CC(F)(F)CN1C(=O)c1cc(C2CC2)c(OCC23CC4CC(CC(C4)C2)C3)cc1F [Example 48, (2S)-1-[4-(1-adamantylmethoxy)-5-cyclopropyl-2-fluoro-benzoyl]-4,4-difluoro-pyrrolidine-2-carboxylic acid] | – | –
